Assay results published in patent publication US20250195513A1, “DEGRADATION OF IRAK4 BY CONJUGATION OF IRAK4 INHIBITORS WITH E3 LIGASE LIGAND AND METHODS OF USE” (BeiGene, Ltd., priority 2022, published 2025).

Assays:
IRAK4 [1] = target: T1, IRAK4 (Homo sapiens, UniProt Q9NWZ3); test: IRAK4 Degradation Assay with Human Serum (Karpas299, HTRF/TR-FRET); type: cell-based; conditions: Karpas-299 in human serum, 24 hrs treatment; for DC50: read-out: IRAK4 degradtion with human serum assay DC50; for Dmax: read-out: IRAK4 degradtion with human serum assay Dmax (%)
T1 construct: endogenous in cells; host or cells: Karpas299
T1 sequence (Q9NWZ3 1-460): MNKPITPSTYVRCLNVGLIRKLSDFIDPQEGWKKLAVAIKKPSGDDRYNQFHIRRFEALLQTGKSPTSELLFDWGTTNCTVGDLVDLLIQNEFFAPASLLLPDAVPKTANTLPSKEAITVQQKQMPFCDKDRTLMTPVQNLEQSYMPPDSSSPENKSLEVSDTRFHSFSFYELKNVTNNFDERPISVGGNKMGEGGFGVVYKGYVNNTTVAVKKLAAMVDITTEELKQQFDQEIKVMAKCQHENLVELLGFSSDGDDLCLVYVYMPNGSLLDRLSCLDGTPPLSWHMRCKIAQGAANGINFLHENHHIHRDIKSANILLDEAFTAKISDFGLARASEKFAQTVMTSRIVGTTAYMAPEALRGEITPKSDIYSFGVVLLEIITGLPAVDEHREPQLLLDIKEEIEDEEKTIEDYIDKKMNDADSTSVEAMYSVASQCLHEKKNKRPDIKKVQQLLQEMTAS
In short: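 Remaining IRAK4 measured by TR-FRET immunoassay on lysates of Karpas299 cells exposed 24 h to compound dilution series in human serum AB. DC50 derived from a Hill-slope fit of % degradation versus concentration.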

IRAK4 [2] = target: T1, IRAK4; test: IRAK4 Degradation Assay (Karpas299, HTRF/TR-FRET); type: cell-based; conditions: Karpas-299 cells; for Dmax: maximum percentage of degradation
In short: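 Compound potency as DC50 (IC50) came from four-parameter fits of percent IRAK4 degradation. IRAK4 was measured by HTRF (665/620 nm) in lysates of Karpas299 cells seeded at 0.2 million per well. Cells had been treated with compound dilutions for 5 or 24 h.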

[3] = 24 h treatment, read-out: IRAK4 in Karpas-299 (24 h) Dmax (%)
[4] = 24 h treatment, read-out: IRAK4 in Karpas-299 (24 h) DC50
[5] = 5 h treatment, read-out: IRAK4 in Karpas-299 (5 h) Dmax (%)
[6] = 5 h treatment, read-out: IRAK4 in Karpas-299 (5 h) DC50

DC50 (IRAK4 [1]) | Dmax (IRAK4 [1]) | Dmax (IRAK4 [2]; [3]) | DC50 (IRAK4 [2]; [4]) | Dmax (IRAK4 [2]; [5]) | DC50 (IRAK4 [2]; [6]) | SMILES
21 nM | 99% | 97% | 2.6 nM |  |  | CC(C)(O)c1cc2nn([C@H]3CC[C@H](N4CCN(C(=O)C5CN(c6ccc(N7CCC(=O)NC7=O)cc6)C5)CC4)CC3)cc2cc1NC(=O)c1ccc2cc(C#N)cnn12 [Example 265, 3-cyano-N-(2-((1r,4r)-4-(4-(1-(4-(2,4-dioxotetrahydropyrimidin-1(2H)-yl)phenyl)azetidine-3-carbonyl)piperazin-1-yl)cyclohexyl)-6-(2-hydroxypropan-2-yl)-2H-indazol-5-yl)pyrrolo[1,2-b]pyridazine-7-carboxamide]
14 nM | 98% | 102% | 1.5 nM |  |  | CC(C)(O)c1cc2nn(C3CCN([C@@H]4CCN(C5CN(c6cc(F)c([C@H]7CCC(=O)NC7=O)c(F)c6)C5)CC4(F)F)CC3)cc2cc1NC(=O)c1ccc2cc(C#N)cnn12 [Example 342, 3-cyano-N-(2-((R)-1′-(1-(4-((R)-2,6-dioxopiperidin-3-yl)-3,5-difluorophenyl)azetidin-3-yl)-3′,3′-difluoro-[1,4′-bipiperidin]-4-yl)-6-(2-hydroxypropan-2-yl)-2H-indazol-5-yl)pyrrolo[1,2-b]pyridazine-7-carboxamide]
16 nM | 97% | 89% | 2.1 nM |  |  | Cn1c(=O)n(C2CCC(=O)NC2=O)c2cccc(CCCN3CCN(C45CC(n6cc7cc(NC(=O)c8ccc9cc(C#N)cnn89)c(C(C)(C)O)cc7n6)(C4)C5)CC3)c21 (stereo not drawn) [Example 350, 3-cyano-N-(2-(3-(4-(3-(1-(2,6-dioxopiperidin-3-yl)-3-methyl-2-oxo-2,3-dihydro-1H-benzo[d]imidazol-4-yl)propyl)piperazin-1-yl)bicyclo[1.1.1]pentan-1-yl)-6-(2-hydroxypropan-2-yl)-2H-indazol-5-yl)pyrrolo[1,2-b]pyridazine-7-carboxamide]
24 nM | 99% | 99% | 2 nM |  |  | CC(C)(O)c1cc2nn([C@H]3CC[C@H](C4CCN(CC5CN(c6cc(F)c([C@H]7CCC(=O)NC7=O)c(F)c6)C5)CC4)CC3)cc2cc1NC(=O)c1ccc2cc(C#N)cnn12 [Example 390, 3-cyano-N-(2-((1r,4r)-4-(1-((1-(4-((R)-2,6-dioxopiperidin-3-yl)-3,5-difluorophenyl)azetidin-3-yl)methyl)piperidin-4-yl)cyclohexyl)-6-(2-hydroxypropan-2-yl)-2H-indazol-5-yl)pyrrolo[1,2-b]pyridazine-7-carboxamide]
191 nM | 97% | 97% | 1.9 nM |  |  | CC(C)(O)c1cc2nn([C@H]3CC[C@H](N4CCN(C(=O)C5CN(c6cc(F)c([C@H]7CCC(=O)NC7=O)c(F)c6)C5)CC4)CC3)cc2cc1NC(=O)c1ccc2cc(C(F)(F)F)cnn12 [Example 207]
10 nM | 96% | 97% | 3.5 nM |  |  | CC(C)(O)c1cc2nn([C@H]3CC[C@H](C4CCN(C5CCN(c6cc(F)c([C@H]7CCC(=O)NC7=O)c(F)c6)CC5)CC4)CC3)cc2cc1NC(=O)c1ccc2cc(C#N)cnn12 [Example 409, 3-cyano-N-(2-((1r,4r)-4-(1′-(4-((R)-2,6-dioxopiperidin-3-yl)-3,5-difluorophenyl)-[1,4′-bipiperidin]-4-yl)cyclohexyl)-6-(2-hydroxypropan-2-yl)-2H-indazol-5-yl)pyrrolo[1,2-b]pyridazine-7-carboxamide]
6.3 nM | 94% | 95% | 0.6 nM |  |  | CC(C)(O)c1cc2nn([C@H]3CC[C@H](N4CCN(CCc5cc(F)c([C@H]6CCC(=O)NC6=O)c(F)c5)CC4=O)CC3)cc2cc1NC(=O)c1ccc2cc(C#N)cnn12 [Example 334, 3-cyano-N-(2-((1R,4r)-4-(4-(4-((R)-2,6-dioxopiperidin-3-yl)-3,5-difluorophenethyl)-2-oxopiperazin-1-yl)cyclohexyl)-6-(2-hydroxypropan-2-yl)-2H-indazol-5-yl)pyrrolo[1,2-b]pyridazine-7-carboxamide]
55 nM | 98% | 96% | 2.1 nM | 96% | 3.8 nM | CC(C)(O)c1cc2nn(C34CC(N5CCN(C(=O)[C@@H]6CCN(c7cc(F)c([C@H]8CCC(=O)NC8=O)c(F)c7)C6)CC5)(C3)C4)cc2cc1NC(=O)c1cccc(C(F)(F)F)n1 [Example 152, N-(2-(3-(4-((R)-1-(4-((R)-2,6-dioxopiperidin-3-yl)-3,5-difluorophenyl)pyrrolidine-3-carbonyl)piperazin-1-yl)bicyclo[1.1.1]pentan-1-yl)-6-(2-hydroxypropan-2-yl)-2H-indazol-5-yl)-6-(trifluoromethyl)picolinamide]
40 nM | 95% | 94% | 3.6 nM |  |  | COc1cc(N2CC[C@@H](C(=O)N3CCN([C@H]4CC[C@H](n5cc6cc(NC(=O)c7ccc8cc(C#N)cnn78)c(C(C)(C)O)cc6n5)CC4)CC3)C2)cc(F)c1N1CCC(=O)NC1=O [Example 212, 3-cyano-N-(2-((1R,4r)-4-(4-((R)-1-(4-(2,4-dioxotetrahydropyrimidin-1(2H)-yl)-3-fluoro-5-methoxyphenyl)pyrrolidine-3-carbonyl)piperazin-1-yl)cyclohexyl)-6-(2-hydroxypropan-2-yl)-2H-indazol-5-yl)pyrrolo[1,2-b]pyridazine-7-carboxamide]
12 nM | 98% | 97% | 1.1 nM |  |  | COC[C@@H]1CN(C[C@@H]2CCN(c3cc(F)c([C@H]4CCC(=O)NC4=O)c(F)c3)C2)CCN1[C@H]1CC[C@H](n2cc3cc(NC(=O)c4ccc5cc(C#N)cnn45)c(C(C)(C)O)cc3n2)CC1 [Example 388, 3-cyano-N-(2-((1S,4r)-4-((S)-4-(((S)-1-(4-((R)-2,6-dioxopiperidin-3-yl)-3,5-difluorophenyl)pyrrolidin-3-yl)methyl)-2-(methoxymethyl)piperazin-1-yl)cyclohexyl)-6-(2-hydroxypropan-2-yl)-2H-indazol-5-yl)pyrrolo[1,2-b]pyridazine-7-carboxamide]
5.2 nM | 97% | 97% | 2.1 nM |  |  | COC[C@H]1CN([C@H]2CC[C@H](n3cc4cc(NC(=O)c5ccc6cc(C#N)cnn56)c(C(C)(C)O)cc4n3)CC2)CCN1C1CCN(c2ccc(C3CCC(=O)NC3=O)nc2C)CC1 (stereo partly drawn) [Example 422, 3-cyano-N-(2-((1R,4r)-4-((3R)-4-(1-(6-(2,6-dioxopiperidin-3-yl)-2-methylpyridin-3-yl)piperidin-4-yl)-3-(methoxymethyl)piperazin-1-yl)cyclohexyl)-6-(2-hydroxypropan-2-yl)-2H-indazol-5-yl)pyrrolo[1,2-b]pyridazine-7-carboxamide]
5 nM | 93% | 97% | 4.3 nM |  |  | CC(C)(O)c1cc2nn(C3CCC(N4C[C@@H]5CN(C6CCN(c7cc(F)c([C@H]8CCC(=O)NC8=O)c(F)c7)CC6)C[C@H]5C4)CC3)cc2cc1NC(=O)c1ccc2cc(C#N)cnn12 (stereo partly drawn) [Example 361, 3-cyano-N-(2-((1R,4r)-4-((3aR,6aR)-5-(1-(4-((R)-2,6-dioxopiperidin-3-yl)-3,5-difluorophenyl)piperidin-4-yl)hexahydropyrrolo[3,4-c]pyrrol-2(1H)-yl)cyclohexyl)-6-(2-hydroxypropan-2-yl)-2H-indazol-5-yl)pyrrolo[1,2-b]pyridazine-7-carboxamide]
6 nM | 99% | 97% | 1.4 nM | 96% | 3.4 nM | Cc1cc(C2CCC(=O)NC2=O)c(F)cc1[C@H]1C[C@H](N2CCN([C@H]3CC[C@H](n4cc5cc(NC(=O)c6ccc7cc(C#N)cnn67)c(C(C)(C)O)cc5n4)CC3)CC2)C1 (stereo partly drawn) [Example 297, 3-cyano-N-(2-((1R,4r)-4-(4-((1r,3R)-3-(4-(2,6-dioxopiperidin-3-yl)-5-fluoro-2-methylphenyl)cyclobutyl)piperazin-1-yl)cyclohexyl)-6-(2-hydroxypropan-2-yl)-2H-indazol-5-yl)pyrrolo[1,2-b]pyridazine-7-carboxamide]
11 nM | 101% | 94% | 4 nM |  |  | CC(C)(O)c1cc2nn([C@H]3CC[C@H](N4CCN([C@H]5C[C@@H](c6ccc(N[C@@H]7CCC(=O)NC7=O)cc6)C5)CC4)CC3)cc2cc1NC(=O)c1ccc2cc(C#N)cnn12 [Example 271, 3-cyano-N-(2-((1R,4r)-4-(4-((1S,3S)-3-(4-(((R)-2,6-dioxopiperidin-3-yl)amino)phenyl)cyclobutyl)piperazin-1-yl)cyclohexyl)-6-(2-hydroxypropan-2-yl)-2H-indazol-5-yl)pyrrolo[1,2-b]pyridazine-7-carboxamide]
